# Reference: patent publication US12729377B2, “RNAi agents and compositions for inhibiting expression of angiopoietin-like 3 (ANGPTL3), and methods of use” (Arrowhead Pharmaceuticals, Inc., priority 2017, dated 2026)
# In the oligonucleotide strings, read from the 5' end, every base follows the letter of its sugar. An asterisk marks phosphorothioate; unmarked linkages are phosphodiester. Other units and linkages are bracketed, terminal groups are in braces. A string of capitals states the bases alone. {NAG37} = tridentate N-acetyl-galactosamine targeting ligand, structure (NAG37)s; [invAb] = inverted abasic unit; m = 2'-O-methyl; f = 2'-fluoro
# How the values were obtained:
# ANGPTL3 protein [1] = experiment: Example 11: dose response, serum ANGPTL3 protein by ELISA in mice; assay type: in vivo, C57bl/6 mice
# Experimental: To assess the dose response of ANGPTL3 RNAi agent AD05488, six- to eight-week-old female C57bl/6 mice were used. Pre-dose serum samples were taken at day −1 after a four hour fast. At day 1, each mouse was given a single subcutaneous administration of 200 μl containing the respective mg/kg dose of an ANGPTL3 RNAi agent in D5W (dextrose in 5% water), or control (D5W) with no RNAi agent, according to the dosing groups recited in Table 53:
# The RNAi agent tested (AD05488) included a modified sequence and an N-acetyl-galactosamine-containing targeting ligand conjugated to the 5′ terminal end of the sense strand. (See Tables 3, 4, and 5 for modified sequences and targeting ligand structures). The injections were performed between the skin and muscle (i.e. subcutaneous injections) into the loose skin over the neck and shoulder area. Four (4) mice in each group were tested (n=4). Serum was collected on days 8, 15, 22, and 29. Mice were fasted for four hours prior to each collection. ANGPTL3 protein levels in serum were measured by ELISA assay (R&D Systems), according to the manufacturer's recommendations. Triglycerides, total cholesterol, high-density lipoprotein (HDL), and low-density lipoprotein (LDL) in serum were measured on a Cobas® Integra 400 (Roche Diagnostics), according to the manufacturer's recommendations.
# (§1) The ANGPTL3 protein levels, triglyceride levels, total cholesterol levels, HDL levels, and LDL levels for each animal were normalized. For normalization, the level of ANGPTL3 protein, triglyceride, HDL, and total cholesterol, respectively, for each animal at a time point, was divided by the pre-treatment level of expression in that animal (in this case at day −1) to determine the ratio of expression “normalized to pre-treatment.” Expression at a specific time point was then normalized to the D5W control group by dividing the “normalized to pre-treatment” ratio for an individual animal by the mean “normalized to pretreatment” ratio of all mice in the D5W control group.
# ANGPTL3 protein [2] = experiment: Example 10: serum ANGPTL3 protein by ELISA in mice; assay type: in vivo; details: 0.5 mg/kg single SC injection day 1, female C57bl/6 mice, n=3, ratio to D5W control
# Experimental: (§2) To assess the in vivo activity of further ANGPTL3 RNAi agents that are designed to target position 304 on the ANGPTL3 gene, six- to eight-week-old female C57bl/6 mice were used. Pre-dose serum samples were taken at day −1 after a four hour fast. At day 1, each mouse was given a single subcutaneous administration of 200 μl containing 0.5 mg/kg (mpk) of an ANGPTL3 RNAi agent in D5W (dextrose in 5% water), or control (D5W) with no RNAi agent, according to the dosing groups recited in Table 47.
# (§3) Each of the RNAi agents included a modified sequence and an N-acetyl-galactosamine-containing targeting ligand conjugated to the 5′ terminal end of the sense strand. (See Tables 3, 4, and 5 for modified sequences and targeting ligand structures). As noted above, each of the ANGPTL3 RNAi agents dosed in this study included nucleotide sequences designed to target the ANGPTL3 gene at position 304. The injections were performed between the skin and muscle (i.e. subcutaneous injections) into the loose skin over the neck and shoulder area. Three (3) mice in each group were tested (n=3). Serum was collected on days 8, 15, 22, 29, and for some groups on day 36 (i.e., Groups 1, 2, and 9-13 only). Mice were fasted for four hours prior to each collection. ANGPTL3 protein levels in serum were measured by ELISA assay (R&D Systems), according to the manufacturer's recommendations. Triglycerides, total cholesterol, high-density lipoprotein (HDL), and low-density lipoprotein (LDL) in serum were measured on a Cobas® Integra 400 (Roche Diagnostics), according to the manufacturer's recommendations.
# as §1
# ANGPTL3 gene = experiment: Example 6: serum triglycerides in mice; assay type: in vivo, C57bl/6 mice
# Experimental: as §2, with “additional” for “further”, “25.” for “47.”
# as §3, with “structures).” for “structures). As noted above, each of the ANGPTL3 RNAi agents dosed in this study included nucleotide sequences designed to target the ANGPTL3 gene at position 304.”, “22, 30,” for “22, 29,”, “and” for “and for some groups”, “day 43 for certain groups” for “day 36”, “2, 5,” for “2,”, “and 10” for “and 9-13”
# as §1
substance,measurement,setting,value
"AD05488: RNAi agent duplex: antisense AM07235-AS, sense AM07234-SS (antisense mU*fA*mC*fUmGfAmUfCmAfAmAfUmAfUmGfUmUfGmAfG*mC; sense {NAG37}*[invAb]*mGmCmUmCmAmAmCmAfUfAfUmUmUmGmAmUmCmAmGmUmA*[invAb])",Avg ANGPTL3 Protein Normalized to Pre-Treatment and Control,"ANGPTL3 protein [1]; 0.05 mg/kg single sc day 1, Day 8",0.788
same,Avg ANGPTL3 Protein Normalized to Pre-Treatment and Control,"ANGPTL3 protein [1]; 0.05 mg/kg single sc day 1, Day 15",0.929
same,Avg ANGPTL3 Protein Normalized to Pre-Treatment and Control,"ANGPTL3 protein [1]; 0.05 mg/kg single sc day 1, Day 22",1.106
same,Avg ANGPTL3 Protein Normalized to Pre-Treatment and Control,"ANGPTL3 protein [1]; 0.05 mg/kg single sc day 1, Day 29",0.990
same,Avg ANGPTL3 Protein Normalized to Pre-Treatment and Control,"ANGPTL3 protein [1]; 0.1 mg/kg single sc day 1, Day 8",0.511
same,Avg ANGPTL3 Protein Normalized to Pre-Treatment and Control,"ANGPTL3 protein [1]; 0.1 mg/kg single sc day 1, Day 15",0.757
same,Avg ANGPTL3 Protein Normalized to Pre-Treatment and Control,"ANGPTL3 protein [1]; 0.1 mg/kg single sc day 1, Day 22",0.720
same,Avg ANGPTL3 Protein Normalized to Pre-Treatment and Control,"ANGPTL3 protein [1]; 0.1 mg/kg single sc day 1, Day 29",0.734
same,Avg ANGPTL3 Protein Normalized to Pre-Treatment and Control,"ANGPTL3 protein [1]; 0.5 mg/kg single sc day 1, Day 8",0.207
same,Avg ANGPTL3 Protein Normalized to Pre-Treatment and Control,"ANGPTL3 protein [1]; 0.5 mg/kg single sc day 1, Day 15",0.261
same,Avg ANGPTL3 Protein Normalized to Pre-Treatment and Control,"ANGPTL3 protein [1]; 0.5 mg/kg single sc day 1, Day 22",0.310
same,Avg ANGPTL3 Protein Normalized to Pre-Treatment and Control,"ANGPTL3 protein [1]; 0.5 mg/kg single sc day 1, Day 29",0.349
same,Avg ANGPTL3 Protein Normalized to Pre-Treatment and Control,"ANGPTL3 protein [1]; 1.0 mg/kg single sc day 1, Day 8",0.116
same,Avg ANGPTL3 Protein Normalized to Pre-Treatment and Control,"ANGPTL3 protein [1]; 1.0 mg/kg single sc day 1, Day 15",0.141
same,Avg ANGPTL3 Protein Normalized to Pre-Treatment and Control,"ANGPTL3 protein [1]; 1.0 mg/kg single sc day 1, Day 22",0.171
same,Avg ANGPTL3 Protein Normalized to Pre-Treatment and Control,"ANGPTL3 protein [1]; 1.0 mg/kg single sc day 1, Day 29",0.199
same,Avg ANGPTL3 Protein Normalized to Pre-Treatment and Control,"ANGPTL3 protein [1]; 2.5 mg/kg single sc day 1, Day 8",0.064
same,Avg ANGPTL3 Protein Normalized to Pre-Treatment and Control,"ANGPTL3 protein [1]; 2.5 mg/kg single sc day 1, Day 15",0.047
same,Avg ANGPTL3 Protein Normalized to Pre-Treatment and Control,"ANGPTL3 protein [1]; 2.5 mg/kg single sc day 1, Day 22",0.056
same,Avg ANGPTL3 Protein Normalized to Pre-Treatment and Control,"ANGPTL3 protein [1]; 2.5 mg/kg single sc day 1, Day 29",0.063
same,Avg ANGPTL3 Protein Normalized to Pre-Treatment and Control,"ANGPTL3 protein [1]; 5.0 mg/kg single sc day 1, Day 8",0.018
same,Avg ANGPTL3 Protein Normalized to Pre-Treatment and Control,"ANGPTL3 protein [1]; 5.0 mg/kg single sc day 1, Day 15",0.019
same,Avg ANGPTL3 Protein Normalized to Pre-Treatment and Control,"ANGPTL3 protein [1]; 5.0 mg/kg single sc day 1, Day 22",0.029
same,Avg ANGPTL3 Protein Normalized to Pre-Treatment and Control,"ANGPTL3 protein [1]; 5.0 mg/kg single sc day 1, Day 29",0.031
same,reduction in ANGPTL3 protein,"ANGPTL3 protein [1]; dose response, single subcutaneous dose, C57bl/6 mice",reduction
same,Average ANGPTL3 Protein Normalized to Pre-Treatment and Control,ANGPTL3 protein [2]; Day 8,0.179
same,Average ANGPTL3 Protein Normalized to Pre-Treatment and Control,ANGPTL3 protein [2]; Day 15,0.197
same,Average ANGPTL3 Protein Normalized to Pre-Treatment and Control,ANGPTL3 protein [2]; Day 22,0.196
same,Average ANGPTL3 Protein Normalized to Pre-Treatment and Control,ANGPTL3 protein [2]; Day 29,0.258
same,Average ANGPTL3 Protein Normalized to Pre-Treatment and Control,ANGPTL3 protein [2]; Day 36,0.297
same,"Avg TG, normalized to pre-treatment and control","ANGPTL3 gene; Day 8, 0.5 mg/kg single SC injection on day 1, n=3",0.568
same,"Avg TG, normalized to pre-treatment and control","ANGPTL3 gene; Day 15, 0.5 mg/kg single SC injection on day 1, n=3",0.637
same,"Avg TG, normalized to pre-treatment and control","ANGPTL3 gene; Day 22, 0.5 mg/kg single SC injection on day 1, n=3",0.484
same,"Avg TG, normalized to pre-treatment and control","ANGPTL3 gene; Day 30, 0.5 mg/kg single SC injection on day 1, n=3",0.652
same,"Avg TG, normalized to pre-treatment and control","ANGPTL3 gene; Day 43, 0.5 mg/kg single SC injection on day 1, n=3",0.689
